Measurements: patent US11096923B2, “Pharmaceutical composition containing polymyxin B/trimethoprim based therapeutics” (University of Rochester, priority 2016, dated 2021)

How the values were obtained:
P. aeruginosa PAO1 = assay: Selleck library screen in presence of sub-inhibitory polymyxin B/trimethoprim; format: cell-based, Pseudomonas aeruginosa; design: key: Growth (+); no growth (−)
Experimental: To identify agents that potentiate the antimicrobial activity of polymyxin B/trimethoprim we first determined the highest concentration of the polymyxin B/trimethoprim combination that allowed growth of P. aeruginosa strain PAO1 and S. aureus strain UAMS-1.
For Selleck library screening, individual wells of 96-well microtiter plates containing 88 μl of fresh media were inoculated with approximately 10^5 CFUs of P. aeruginosa strain PAO1 or S. aureus UAMS-1. Next, 2 μl of polymyxin B/trimethoprim was added to a final concentration of 0.2 μg ml^−1 or 1.25 μg ml^−1 for PA01 and UAMS-1, respectively. Library members were then added at either 5 μM or 50 μM final concentration. Plates were incubated at 37° C. for 16 hours and hits were identified as wells with no visible growth. […]

S. aureus = assay: Fractional inhibitory concentration, checkerboard MIC; format: cell-based, Staphylococcus aureus; conditions: for MIC in combination: PT combined with rifampicin; for MIC: Staphylococcus aureus
P. aeruginosa = assay: as above; format: cell-based, Pseudomonas aeruginosa; conditions: for MIC in combination: PT combined with rifampicin; for MIC: Pseudomonas aeruginosa
[1] = tested on: P. aeruginosa strain PA01 biofilms; assay: Biofilm susceptibility; format: cell-based, Pseudomonas aeruginosa; conditions: established PA01 biofilm, 24 hrs treatment, 32×MIC
From the text: (§1) Bacterial strains used in these studies include the conventional laboratory strains Pseudomonas aeruginosa PA01 and Staphylococcus aureus UAMS-1, both of which are antibiotic susceptible and capable of forming robust biofilms. See […], Thomas J R, Nelson […]. Role of the accessory gene regulator (agr) in pathogenesis of staphylococcal osteomyelitis. Infection and immunity 1995; 63:3373-3380. Seven clinical keratitis isolates of Pseudomonas aeruginosa, were collected from the Flaum Eye Institute, Rochester N.Y. and 25 clinical isolates of Staphylococcus aureus from geographically distinct regions of the country where purchased from International Health Management Associates (IHMA; Schaumburg, Ill.). […] After 24 hrs the remaining media and non-adherent cells were removed, biofilms were suspended in 0.8% NaCl and plated to quantify surviving bacteria. […] Biofilms were treated in increasing increments ranging from 0 to 64×MIC.

[2] = tested on: planktonic P. aeruginosa cells; assay: Antimicrobial kill curves; format: cell-based, Pseudomonas aeruginosa; conditions: 2× MIC, 4 hours post-treatment
Experimental: Overnight cultures of the indicated organism were used to inoculate (1:100 dilution) 100 ml of fresh media and grown to mid-exponential phase. […] Aliquots were taken at 1, 2, 3, 4, and 24 hours, serial diluted and plated for colony forming units.

[3] = tested on: S. aureus UAMS-1 biofilms; assay: Biofilm susceptibility; format: cell-based, Staphylococcus aureus; conditions: established S. aureus biofilm, 24 hrs treatment, 32×MIC
From the text: as §1, with “Ill.). For experiments requiring planktonic cultures, the indicated organism was grown overnight in Luria-Bertani broth (LB; […] Biofilms were established by inoculating individual wells of flat-bottom polystyrene plates (Falcon, Corning Life Sciences; Durham, N.C.) with overnight cultures of the indicated organism into 200 ul of fresh LB to a final concentration of 1×10^7 CFU ml^-1. Plates were placed in a 37° C.-humidified incubator for 72 hours to allow static biofilm formation. Non-adherent cells were aspirated and biofilms were washed twice with phosphate-buffered saline prior to each experiment.” for “Ill.).”

**Q.** Which “P. aeruginosa growth, 5 μM” value (P. aeruginosa PAO1; drug 5 μM in presence of 0.2 μg ml^−1 polymyxin B/trimethoprim) does the source give for `CO[C@H]1/C=C/O[C@@]2(C)Oc3c(C)c(O)c4c(O)c(c(/C=N/N5CCN(C)CC5)c(O)c4c3C2=O)NC(=O)/C(C)=C\C=C\[C@H](C)[C@H](O)[C@@H](C)[C@@H](O)[C@@H](C)[C@H](OC(C)=O)[C@@H]1C` [Rifampicin, rifampicin] here?
**A.** The value was “−”.

**Q.** What about the “P. aeruginosa growth, 50 μM” value (P. aeruginosa PAO1; drug 50 μM in presence of 0.2 μg ml^−1 polymyxin B/trimethoprim) of the same molecule?
**A.** The value was “−”.

**Q.** And the MIC in combination (S. aureus; S. aureus 1071788)?
**A.** The MIC in combination was 0.0015 mg/L.

**Q.** What about the MIC in combination (S. aureus; S. aureus 1094094) of the same molecule?
**A.** The MIC in combination was 0.0015 mg/L.

**Q.** What about the MIC in combination (S. aureus; S. aureus 1094140) of the same molecule?
**A.** The MIC in combination was 0.0015 mg/L.

**Q.** And the MIC in combination (S. aureus; S. aureus 1094147)?
**A.** The MIC in combination was 0.0015 mg/L.

**Q.** What about the MIC in combination (S. aureus; S. aureus 1094166) of the same molecule?
**A.** The MIC in combination was 0.0015 mg/L.

**Q.** What about the MIC in combination (S. aureus; S. aureus 1094178) of the same molecule?
**A.** Its MIC in combination is 0.0076 mg/L.

**Q.** What about the MIC in combination (S. aureus; S. aureus 1097612) of the same molecule?
**A.** Its MIC in combination is 0.0035 mg/L.

**Q.** What about the MIC in combination (S. aureus; S. aureus 1097630) of the same molecule?
**A.** Its MIC in combination is 0.0015 mg/L.

**Q.** What about the MIC in combination (S. aureus; S. aureus 1101442) of the same molecule?
**A.** Its MIC in combination is 0.0035 mg/L.

**Q.** And the MIC in combination (S. aureus; S. aureus 1103430)?
**A.** Its MIC in combination is 0.0015 mg/L.

**Q.** What about the MIC in combination (S. aureus; S. aureus 1110936) of the same molecule?
**A.** The MIC in combination was 0.0035 mg/L.

**Q.** What about the MIC in combination (S. aureus; S. aureus 1111063) of the same molecule?
**A.** Its MIC in combination is 0.0076 mg/L.

**Q.** And the MIC in combination (S. aureus; S. aureus 1122181)?
**A.** Its MIC in combination is 0.0015 mg/L.

**Q.** What about the MIC in combination (S. aureus; S. aureus 1122187) of the same molecule?
**A.** The MIC in combination was 0.0035 mg/L.

**Q.** What about the MIC in combination (S. aureus; S. aureus 1122190) of the same molecule?
**A.** The MIC in combination was 0.0035 mg/L.

**Q.** And the MIC in combination (S. aureus; S. aureus 1122197)?
**A.** Its MIC in combination is 0.0015 mg/L.

**Q.** And the MIC in combination (S. aureus; S. aureus 1125120)?
**A.** The MIC in combination was 0.0076 mg/L.

**Q.** And the MIC in combination (S. aureus; S. aureus 1132822)?
**A.** The MIC in combination was 0.0015 mg/L.

**Q.** And the MIC in combination (S. aureus; S. aureus 1142776)?
**A.** The MIC in combination was 0.0015 mg/L.

**Q.** And the MIC in combination (S. aureus; S. aureus 1144105)?
**A.** Its MIC in combination is 0.0035 mg/L.

**Q.** What about the MIC in combination (S. aureus; S. aureus UAMS-1) of the same molecule?
**A.** The MIC in combination was 0.0015 mg/L.

**Q.** And the MIC (S. aureus; S. aureus 1071788)?
**A.** The MIC was 0.01 mg/L.

**Q.** And the MIC (S. aureus; S. aureus 1094094)?
**A.** The MIC was 0.01 mg/L.

**Q.** What about the MIC (S. aureus; S. aureus 1094140) of the same molecule?
**A.** Its MIC is 0.01 mg/L.

**Q.** What about the MIC (S. aureus; S. aureus 1094147) of the same molecule?
**A.** Its MIC is 0.01 mg/L.

**Q.** What about the MIC (S. aureus; S. aureus 1094166) of the same molecule?
**A.** The MIC was 0.01 mg/L.

**Q.** What about the MIC (S. aureus; S. aureus 1094178) of the same molecule?
**A.** Its MIC is 0.1 mg/L.

**Q.** What about the MIC (S. aureus; S. aureus 1097612) of the same molecule?
**A.** The MIC was 0.05 mg/L.

**Q.** And the MIC (S. aureus; S. aureus 1097630)?
**A.** Its MIC is 0.01 mg/L.

**Q.** And the MIC (S. aureus; S. aureus 1101442)?
**A.** Its MIC is 0.05 mg/L.

**Q.** What about the MIC (S. aureus; S. aureus 1103430) of the same molecule?
**A.** The MIC was 0.01 mg/L.

**Q.** And the MIC (S. aureus; S. aureus 1110936)?
**A.** The MIC was 0.05 mg/L.

**Q.** What about the MIC (S. aureus; S. aureus 1111063) of the same molecule?
**A.** The MIC was 0.1 mg/L.

**Q.** And the MIC (S. aureus; S. aureus 1122181)?
**A.** Its MIC is 0.01 mg/L.

**Q.** And the MIC (S. aureus; S. aureus 1122187)?
**A.** The MIC was 0.05 mg/L.

**Q.** What about the MIC (S. aureus; S. aureus 1122190) of the same molecule?
**A.** Its MIC is 0.05 mg/L.

**Q.** What about the MIC (S. aureus; S. aureus 1122197) of the same molecule?
**A.** Its MIC is 0.01 mg/L.

**Q.** And the MIC (S. aureus; S. aureus 1125120)?
**A.** The MIC was 0.05 mg/L.

**Q.** And the MIC (S. aureus; S. aureus 1132822)?
**A.** Its MIC is 0.01 mg/L.

**Q.** What about the MIC (S. aureus; S. aureus 1142776) of the same molecule?
**A.** The MIC was 0.01 mg/L.

**Q.** What about the MIC (S. aureus; S. aureus 1144105) of the same molecule?
**A.** Its MIC is 0.05 mg/L.

**Q.** What about the MIC (S. aureus; S. aureus UAMS-1) of the same molecule?
**A.** Its MIC is 0.01 mg/L.

**Q.** What about the MIC in combination (P. aeruginosa; P. aeruginosa PAO1) of the same molecule?
**A.** The MIC in combination was 1.9 mg/L.

**Q.** And the MIC in combination (P. aeruginosa; P. aeruginosa RW01)?
**A.** The MIC in combination was 1.9 mg/L.

**Q.** What about the MIC in combination (P. aeruginosa; P. aeruginosa RW02) of the same molecule?
**A.** The MIC in combination was 1.9 mg/L.

**Q.** And the MIC in combination (P. aeruginosa; P. aeruginosa RW03)?
**A.** The MIC in combination was 3.9 mg/L.

**Q.** What about the MIC in combination (P. aeruginosa; P. aeruginosa RW04) of the same molecule?
**A.** Its MIC in combination is 1.9 mg/L.

**Q.** What about the MIC in combination (P. aeruginosa; P. aeruginosa RW05) of the same molecule?
**A.** Its MIC in combination is 1.9 mg/L.

**Q.** And the MIC in combination (P. aeruginosa; P. aeruginosa RW06)?
**A.** Its MIC in combination is 1.9 mg/L.

**Q.** And the MIC in combination (P. aeruginosa; P. aeruginosa RW07)?
**A.** Its MIC in combination is 1.9 mg/L.

**Q.** What about the MIC (P. aeruginosa; P. aeruginosa RW01) of the same molecule?
**A.** Its MIC is 15.6 mg/L.

**Q.** And the MIC (P. aeruginosa; P. aeruginosa RW02)?
**A.** The MIC was 15.6 mg/L.

**Q.** And the MIC (P. aeruginosa; P. aeruginosa RW03)?
**A.** The MIC was 15.6 mg/L.

**Q.** And the MIC (P. aeruginosa; P. aeruginosa RW04)?
**A.** Its MIC is 15.6 mg/L.

**Q.** What about the MIC (P. aeruginosa; P. aeruginosa RW05) of the same molecule?
**A.** The MIC was 31.2 mg/L.

**Q.** What about the MIC (P. aeruginosa; P. aeruginosa RW06) of the same molecule?
**A.** The MIC was 15.6 mg/L.

**Q.** And the MIC (P. aeruginosa; P. aeruginosa RW07)?
**A.** Its MIC is 15.6 mg/L.

**Q.** And the MIC (P. aeruginosa; PAO1, P. aeruginosa PAO1)?
**A.** Its MIC is 15.6 mg/L.

**Q.** What about the “reduction in biofilm-associated CFU” value [1] of the same molecule?
**A.** The value was 5 log.

**Q.** And the “reduction in CFU at hour 4” value [2]?
**A.** The value was 6 log.

**Q.** What about the “reduction in biofilm-associated CFU” value [3] of the same molecule?
**A.** The value was 4 log.
